Experimental data published in patent publication US5741798A, “2-benzyl-4-sulfonyl-4H-isoquinolin-1,3-diones and their use as antiinflammatory agents” (priority 1997, dated 1998).

Key:
[1] = test system: Carrageenan-induced paw edema; test: Carrageenan-Induced Paw Edema in Rats; type: in vivo, rat; conditions: oral, 30 mg/kg; *p < 0.05
Procedure: The antiinflammatory activities of two compounds in accordance with the invention (those of Examples 1 and 10) were determined in vivo and compared to those of the known antiinflammatory agents indomethacin and meloxicam, using the Carrageenan-Induced Paw Edema in Rats protocol described by C. A Winter et al. J. Pharmacol. Exp. Ther. 1963, 141, 369. Test compounds were administered orally.

[2] = test system: COX-2; conditions: in words, background; cited from earlier work
[3] = target: Human cyclooxygenase 1 (COX-1) (Homo sapiens, UniProt P23219); test: COX-1 inhibition, microsomal assay; conditions: 20 min, read-out: % Inhibition of COX Enzymes in Microsomal Assays, COX-1
Chain of Human cyclooxygenase 1 (COX-1) (P23219 24-599): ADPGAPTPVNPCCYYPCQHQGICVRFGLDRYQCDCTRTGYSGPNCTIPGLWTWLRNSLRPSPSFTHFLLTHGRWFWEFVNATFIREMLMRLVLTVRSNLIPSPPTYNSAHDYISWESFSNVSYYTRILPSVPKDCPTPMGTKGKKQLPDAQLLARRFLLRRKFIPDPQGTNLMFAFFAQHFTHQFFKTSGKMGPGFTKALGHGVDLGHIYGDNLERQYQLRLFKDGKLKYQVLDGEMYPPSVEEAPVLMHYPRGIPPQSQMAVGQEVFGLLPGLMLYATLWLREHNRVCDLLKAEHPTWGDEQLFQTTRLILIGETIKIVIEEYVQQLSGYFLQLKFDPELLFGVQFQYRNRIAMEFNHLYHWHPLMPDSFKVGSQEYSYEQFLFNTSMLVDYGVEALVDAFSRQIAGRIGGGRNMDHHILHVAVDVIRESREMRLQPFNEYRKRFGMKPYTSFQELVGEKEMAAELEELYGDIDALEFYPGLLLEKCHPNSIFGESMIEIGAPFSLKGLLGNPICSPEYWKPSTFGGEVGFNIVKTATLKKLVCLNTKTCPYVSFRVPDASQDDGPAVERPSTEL
Procedure: (§1) Human cyclooxygenase 1 and 2 are expressed in a baculovirus expression system using High 5 insect cells. Microsomal fractions prepared from the cells are stored at -80° C. The assays are performed at room temperature in phosphate buffered saline. After incubating the COX-1 or COX-2 microsomes with hematin (2 μM), phenol (0.5 mM) and reduced glutathione (1 mM) for 5 minutes, inhibitor or DMSO vehicle is added and allowed to incubate for 20 minutes. Arachidonic acid (2 μM) is added and after 20 minutes the reaction is stopped by the addition of HCl (0.1 N HCl final concentration).
(§2) The inhibitory activities against COX-1 and COX-2 of the compounds described in the above Synthetic Examples were determined using the two in vitro assays described above.

[4] = target: T1, human recombinant COX-1 (Homo sapiens, UniProt P23219); test: COX-1 inhibition, COS cell assay; type: cell-based
T1 construct: expressed in transfected cells; host or cells: Cos-A2 cells, stably transfected
T1 sequence (P23219 24-599): as above
Procedure: (§3) Cos-A2 cells stably transfected with human recombinant COX-1 or COX-2 are cultured in 96 well tissue culture plates with Dulbecco's Modified Eagle Medium supplemented with 10% fetal bovine serum, glutamine (2 mM), penicillin (50 U/mL), streptomycin ([…]) and geneticin (400 μg/mL). Media is removed from confluent monolayers and the cells are washed twice with Hank's buffered saline solution. Fresh HBSS is added, with or without inhibitor, and the cells are incubated for 30 minutes at 37° C. Arachidonic acid (30 μM) is then added and the cells are incubated for an additional one hour at 37° C. Individual experiments represent a mean of triplicate wells for control and inhibitor doses. Supernatents are removed and stored at -80° C. until assayed for PGE2 by EIA (Amersham).
as §2

[5] = target: T2, Human cyclooxygenase 2 (COX-2) (Homo sapiens, UniProt P35354); test: COX-2 inhibition, microsomal assay; conditions: 20 min, read-out: % Inhibition of COX Enzymes in Microsomal Assays, COX-2
T2 sequence (P35354 18-604): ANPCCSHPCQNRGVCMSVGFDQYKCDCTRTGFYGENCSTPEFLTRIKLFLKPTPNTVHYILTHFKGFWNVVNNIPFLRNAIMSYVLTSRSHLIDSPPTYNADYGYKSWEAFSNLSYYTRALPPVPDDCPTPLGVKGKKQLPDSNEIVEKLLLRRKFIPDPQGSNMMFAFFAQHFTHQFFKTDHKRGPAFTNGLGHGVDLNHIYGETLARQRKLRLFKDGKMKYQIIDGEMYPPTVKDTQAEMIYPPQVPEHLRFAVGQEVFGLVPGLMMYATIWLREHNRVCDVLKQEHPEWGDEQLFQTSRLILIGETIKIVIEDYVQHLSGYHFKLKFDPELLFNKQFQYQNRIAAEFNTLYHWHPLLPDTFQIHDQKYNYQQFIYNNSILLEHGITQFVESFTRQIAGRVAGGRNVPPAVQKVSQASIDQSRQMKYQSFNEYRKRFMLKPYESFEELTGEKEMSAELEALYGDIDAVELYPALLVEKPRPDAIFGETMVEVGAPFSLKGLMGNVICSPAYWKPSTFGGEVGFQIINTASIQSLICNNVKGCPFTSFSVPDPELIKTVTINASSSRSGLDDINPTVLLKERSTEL
Procedure: as §1, §2

[6] = target: T3, human recombinant COX-2 (Homo sapiens, UniProt P35354); test: COX-2 inhibition, COS cell assay; type: cell-based; conditions: COS cells, COX-2; read-out: Inhibition of COX Enzymes in COS Cell Assays, COX-2 IC50
T3 construct: expressed in transfected cells; host or cells: Cos-A2 cells, stably transfected
T3 sequence (P35354 18-604): T2 sequence (P35354 18-604)
Procedure: as §3, §2

[7] = COS, read-out: Inhibition of COX Enzymes in COS Cell Assays, COX-1 % inhibition

Row | SMILES | Effect of Compounds in Carrageenen Paw Edema in Rats, % Inhibition [1] [%] | selective inhibition of the COX-2 isoform [2] | inhibition at 0.1 µg/mL [3] [%] | inhibition at 1 µg/mL [3] [%] | inhibition at 10 µg/mL [3] [%] | IC50 ([4]; COS cells, COX-1, read-out: Inhibition of COX Enzymes in COS Cell Assays, COX-1 IC50) [nM] | inhibition at 0.1 µg/mL [5] [%] | inhibition at 1 µg/mL [5] [%] | inhibition at 10 µg/mL [5] [%] | IC50 [6] [nM] | inhibition at 0.1 µM [4, 7] [%] | inhibition at 1 µM [4, 7] [%] | inhibition at 10 µM [4, 7] [%]
1 | Cc1cnc(NC(=O)C2=C(O)c3ccccc3S(=O)(=O)N2C)s1 [Meloxicam, reference compound] | 56 | more or less selectively inhibit the COX-2 isoform |  |  |  |  |  |  |  |  |  |  | 
2 | CC(C)S(=O)(=O)C1C(=O)N(Cc2ccccc2)C(=O)c2ccc(Cl)cc21 (stereo not drawn) [Example 1, 2-Benzyl-6-chloro-4-(1-methylethyl)sulfonyl-4H-isoquinolin-1,3-dione] | 42.5 |  | 10 | 34 | 57 | 1400 |  |  |  |  |  |  | 
3 | CC(C)S(=O)(=O)C1C(=O)N(Cc2ccc(F)c(F)c2)C(=O)c2ccc(Cl)cc21 (stereo not drawn) [Example 10] | 38.6 |  | 13 | 40 | 96 |  | -3 | 100 | 100 | 100 | 20 | 55 | 88
